Measurements reported in ChEMBL document CHEMBL1201862, “PubChem BioAssay data set” (2004).
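Cultured in 96-well plates, cells were exposed to test compound for 48 hours across five concentrations. Abbreviation: GI50, concentration required for 50% inhibition of growth.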 Calls of active or inactive are those of the source. Rule as the data show it: active = GI50 up to about 1.1 µM and inactive = higher.

What was measured:
Experiment in all cases: growth of human tumour cells (NCI), 48 h
786-0 = system: 786-0
A498 = system: A498
ACHN = system: ACHN
HCT-116 = system: HCT-116
HCT-15 = system: HCT-15
HL-60 = system: HL-60
HOP-62 = system: HOP-62
MOLT-4 = system: MOLT-4
NCI-H226 = system: NCI-H226
OVCAR-4 = system: OVCAR-4
SF-268 = system: SF-268
SF-295 = system: SF-295
SK-MEL-28 = system: SK-MEL-28
SN12C = system: SN12C
TK-10 = system: TK-10
UACC-257 = system: UACC-257
UO-31 = system: UO-31
CCRF-CEM = system: CCRF-CEM
RXF 393 = system: RXF 393

SMILES	GI50 (786-0)	GI50 (A498)	GI50 (ACHN)	GI50 (HCT-116)	GI50 (HCT-15) [µM]	GI50 (HL-60)	GI50 (HOP-62)	GI50 (MOLT-4)	GI50 (NCI-H226)	GI50 (OVCAR-4)	GI50 (SF-268)	GI50 (SF-295)	GI50 (SK-MEL-28)	GI50 (SN12C)	GI50 (TK-10)	GI50 (UACC-257)	GI50 (UO-31)	GI50 (CCRF-CEM)	GI50 (RXF 393)
Cc1ccc(S(=O)(=O)OC2=C/C(=N\c3onc(C)c3C)c3ccccc3C2=O)cc1	37.1 µM (inactive)	> 100 µM (inactive)	26.3 µM (inactive)	17.6 µM (inactive)	29	6.43 µM (inactive)	23.6 µM (inactive)	4.8 µM (inactive)	35.4 µM (inactive)	16.4 µM (inactive)	23.7 µM (inactive)	32.4 µM (inactive)	44.3 µM (inactive)	18.7 µM (inactive)	36.6 µM (inactive)	15.2 µM (inactive)	17 µM (inactive)	–	–
O=C(O)c1ccc(N/C(=C(/C(Cl)=C(Cl)Cl)[N+](=O)[O-])n2nnc3ccccc32)cc1	> 100 µM (inactive)	> 100 µM (inactive)	> 100 µM (inactive)	> 100 µM (inactive)	> 100	–	> 100 µM (inactive)	> 100 µM (inactive)	> 100 µM (inactive)	> 100 µM (inactive)	> 100 µM (inactive)	> 100 µM (inactive)	> 100 µM (inactive)	> 100 µM (inactive)	–	> 100 µM (inactive)	> 100 µM (inactive)	> 100 µM (inactive)	–
O=[N+]([O-])C(=C1NCCN1)/C(Cl)=C(/Cl)N1CCOCC1	> 100 µM (inactive)	> 100 µM (inactive)	> 100 µM (inactive)	> 100 µM (inactive)	> 100	–	> 100 µM (inactive)	> 100 µM (inactive)	> 100 µM (inactive)	> 100 µM (inactive)	> 100 µM (inactive)	> 100 µM (inactive)	> 100 µM (inactive)	> 100 µM (inactive)	–	> 100 µM (inactive)	> 100 µM (inactive)	> 100 µM (inactive)	–
O=C(O)[C@@]1(Cc2ccc(O)cc2)C[C@@H]2Cc3ccccc3N2N1	> 100 µM (inactive)	> 100 µM (inactive)	> 100 µM (inactive)	> 100 µM (inactive)	> 100	> 100 µM (inactive)	> 100 µM (inactive)	> 100 µM (inactive)	> 100 µM (inactive)	> 100 µM (inactive)	> 100 µM (inactive)	> 100 µM (inactive)	> 100 µM (inactive)	> 100 µM (inactive)	> 100 µM (inactive)	> 100 µM (inactive)	> 100 µM (inactive)	> 100 µM (inactive)	–
Cc1ccc(/C=N/Nc2cnccn2)s1	> 100 µM (inactive)	–	> 100 µM (inactive)	> 100 µM (inactive)	> 100	> 100 µM (inactive)	> 100 µM (inactive)	65.2 µM (inactive)	38.7 µM (inactive)	> 100 µM (inactive)	> 100 µM (inactive)	> 100 µM (inactive)	> 100 µM (inactive)	42.6 µM (inactive)	> 100 µM (inactive)	> 100 µM (inactive)	> 100 µM (inactive)	> 100 µM (inactive)	> 100 µM (inactive)
COC(=O)CSc1nc2[nH]c(SC)c(C(N)=O)c2c(=O)n1-c1ccccc1	> 10 µM (inactive)	–	–	–	> 10	> 10 µM (inactive)	> 10 µM (inactive)	> 10 µM (inactive)	–	> 10 µM (inactive)	> 10 µM (inactive)	> 10 µM (inactive)	> 10 µM (inactive)	> 10 µM (inactive)	> 10 µM (inactive)	> 10 µM (inactive)	–	> 10 µM (inactive)	> 10 µM (inactive)
O=S1(=O)c2ccccc2Oc2ccc(C(/C=N/O)=N/O)cc21	46.1 µM (inactive)	–	38.6 µM (inactive)	43.7 µM (inactive)	41	17.3 µM (inactive)	65.5 µM (inactive)	27.5 µM (inactive)	57.4 µM (inactive)	39.1 µM (inactive)	30.1 µM (inactive)	18.2 µM (inactive)	56.8 µM (inactive)	61.9 µM (inactive)	0.155 µM (active)	–	24 µM (inactive)	25.8 µM (inactive)	15.5 µM (inactive)
CN1C(=S)C(c2ccccc2)Sc2ccccc21 (centres undefined)	> 100 µM (inactive)	–	> 100 µM (inactive)	38.8 µM (inactive)	52.1	87.5 µM (inactive)	> 100 µM (inactive)	7.29 µM (inactive)	90.6 µM (inactive)	> 100 µM (inactive)	> 100 µM (inactive)	17.4 µM (inactive)	> 100 µM (inactive)	> 100 µM (inactive)	85.9 µM (inactive)	30.8 µM (inactive)	35.6 µM (inactive)	8.77 µM (inactive)	50.2 µM (inactive)
